Series [1] concerns PC12 cells expressing G93A SOD1-YFP. The series is classed as cell-based.
A short description of another series: in vivo. Particulars: Sprague-Dawley, rat, iv, 1 mg/kg.
The conditions of series [2]: Sprague-Dawley rats, in PBS.
For series [3] the following is noted: mice, 50 mg/kg peritoneally, 1 h after injection.
For another series, the system named is G85R SOD1. The experiment in a line: High content G85R-SOD1 aggregation assay. The class given is cell-based.
The test system of series [4] is 68 in vitro radioligand binding assays. Particulars: 10 μM, in duplicate, 68 assays.

Like-named read-outs stand apart in the source and are kept apart here.

Regarding `CCCCN1C(=O)CC(=O)NC1=O` [Compound 1, 1-Butylpyrimidine-2,4,6(1H,3H,5H)-trione], the “activity in cytotoxicity protection assay” value (“activity” below) in series [1] is “no activity”.

Turning to `O=C1CC(=O)N(C2CCCCC2)C(=O)N1` [Compound 2, 1-Cyclohexylpyrimidine-2,4,6(1H,3H,5H)-trione], in series [1], the “activity” value is on record as “no activity”.

In general, clearance refers to the volume of plasma or blood freed of the substance per unit of time. Higher therefore signals a high capacity for elimination. In “in vivo”, `O=C1CC(=O)N(CCc2ccccc2)C(=O)N1CCc1ccccc1` [Compound 7, 1,3-Diphenethylpyrimidine-2,4,6(1H,3H,5H)-trione] displayed a clearance of 133 mL/min/kg. For the same compound, in series [2] (1 mg/kg i.v.), the AUC/Dose is given as 126 ng · h/mL/dose. The compound further came in with an AUC/Dose in series [2] (1 mg/kg p.o.) of 124 ng · h/mL/dose. In series [3], the blood level was 150 µM and the brain level is 50 µM. In the series with G85R SOD1 (cells treated with MG132 plus 10 μM compound), the “reduction in aggregates, fluorescence images” value is recorded as “significant reduction in aggregates”. In addition, the “reduction in the number of aggregates of G85R SOD1” value in the series on G85R SOD1 (dose dependence) was “concentration dependent”. Also, in series [4], the “inhibitory effect across profiling screen” value is “No significant inhibitory effect”.

Consider `O=C1CC(=O)N(CCN2CCOCC2)C(=O)N1CCc1ccc(F)cc1` [Compound 34, 1-(4-Fluorophenethyl)-3-(2-morpholinoethyl)pyrimidine-2,4,6(1H,3H,5H)-trione], for which the “activity” value in series [1] was “inactive”.

Turning to `O=c1cc(Cl)n(CCc2ccccc2)c(=O)n1CCc1ccccc1` [Compound 46, 6-chloro-1,3-diphenethylpyrimidine-2,4(1H,3H)-dione], the “activity” value in series [1] was “inactive”.

For `COc1cc(=O)n(CCc2ccccc2)c(=O)n1CCc1ccccc1` [Compound 47, 6-methoxy-1,3-diphenethylpyrimidine-2,4(1H,3H)-dione], the “activity” value in series [1] is “inactive”.

Take `O=C1C(=O)N(CCc2ccccc2)C(=O)N1CCc1ccccc1` [Compound 49, 1,3-Diphenethylimidazolidine-2,4,5-trione]: in series [1], the “activity” value is on record as “none was active”.

In the case of `O=C1C(=O)N(C2CCCCC2)C(=O)N1C1CCCCC1` [Compound 51, 1,3-Dicyclohexylimidazolidine-2,4,5-trione], in series [1], the “activity” value is “none was active”.

Regarding `O=C1CCC(=O)N(CCc2ccccc2)C(=O)N1CCc1ccccc1` [Compound 52, 1,3-Diphenethyl-1,3-diazepane-2,4,7-trione], in series [1], the “activity” value is recorded as “none was active”.
